The values that follow come from patent publication US8828908B2, “Herbicidally active bicyclic 1,3-dione compounds” (Syngenta Limited, priority 2007, dated 2014).

Broadly, the pest or weed control is the degree to which the test organism was suppressed or injured, in per cent. Higher therefore signals a strong effect.

What all share (format): in vivo
Test [1] concerns Solanum nigrum (SOLNI). Kind of test: Example A post-emergence herbicidal glasshouse test. The following applies: 250 g/ha, evaluated after 13 days, 100=total damage to plant, 0=no damage. The procedure, abridged: (§1)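 Spray application in 50:50 acetone/water with 0.5% Tween 20, pre-emergence at 1 day or post-emergence at 8 days after sowing. Evaluated visually at 13 days on a 0–100 damage scale.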

Test [2] has as its system Amaranthus retroflexus (AMARE). The description is as above. Conditions: 312 h, evaluated after 13 days, 100=total damage to plant, 0=no damage. The gist of the method: as §1
The test system of test [3] is Setaria faberi (SETFA). The description is as above. Conditions: 312 h, evaluated after 13 days, 100=total damage to plant, 0=no damage. The gist of the method:
as §1

The subject of test [4] is Avena fatua (AVEFA). Described as above. Conditions: 312 h, evaluated after 13 days, 100=total damage to plant, 0=no damage. The procedure, abridged: as §1
The test system of test [5] is Echinochloa crus-galli (ECHCG). The description is as above. Conditions: 312 h, evaluated after 13 days, 100=total damage to plant, 0=no damage. The gist of the method:
as §1

Test [6] relates to Alopecurus myosuroides (ALOMY). The description is as above. Conditions: 312 h, evaluated after 13 days, 100=total damage to plant, 0=no damage. The gist of the method:
as §1

In test [7] the test system is Solanum nigrum (SOLNI). Kind of test: Example A pre-emergence herbicidal glasshouse test. The following applies: Rate 250 g/ha, evaluated after 13 days, 100=total damage to plant, 0=no damage to plant. The procedure, abridged: as §1
The subject of test [8] is Amaranthus retroflexus (AMARE). Kind of test: Example A pre-emergence herbicidal glasshouse test. Conditions: 312 h, Rate 250 g/ha, evaluated after 13 days, 100=total damage to plant, 0=no damage to plant. The gist of the method:
as §1

Test [9] has as its system Setaria faberi (SETFA). Kind of test: Example A pre-emergence herbicidal glasshouse test. Conditions: 312 h, Rate 250 g/ha, evaluated after 13 days, 100=total damage to plant, 0=no damage to plant. The procedure, abridged: as §1
Test [10] deals with Avena fatua (AVEFA). Kind of test: Example A pre-emergence herbicidal glasshouse test. Conditions: 312 h, Rate 250 g/ha, evaluated after 13 days, 100=total damage to plant, 0=no damage to plant. The procedure, abridged: as §1
Test [11] deals with Echinochloa crus-galli (ECHCG). Kind of test: Example A pre-emergence herbicidal glasshouse test. The following applies: 312 h, Rate 250 g/ha, evaluated after 13 days, 100=total damage to plant, 0=no damage to plant. The procedure, abridged: as §1
Test [12] has as its system Alopecurus myosuroides (ALOMY). Kind of test: Example A pre-emergence herbicidal glasshouse test. The following applies: 312 h, Rate 250 g/ha, evaluated after 13 days, 100=total damage to plant, 0=no damage to plant. The procedure, abridged: as §1
For test [13], the system named is Lolium perenne (LOLPE). Kind of test: Example B pre-emergence herbicidal greenhouse test. The following applies: 480 h, evaluated after 20 days, 100=total damage to plant, 0=no damage. The procedure, abridged: (§2)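 Read-out is visual plant damage (100 = total, 0 = none) assessed 20 days (pre-emergence) or 15 days (post-emergence) after spraying. Seeds in pots had been cultivated 1 day or 10 days respectively under controlled glasshouse conditions before application of an aqueous formulated spray.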

The subject of test [14] is Digitaria sanguinalis (DIGSA). Kind of test: Example B pre-emergence herbicidal greenhouse test. The following applies: 480 h, evaluated after 20 days, 100=total damage to plant, 0=no damage. The gist of the method:
as §2

The test system of test [15] is Setaria faberi (SETFA). Kind of test: Example B pre-emergence herbicidal greenhouse test. Conditions: 480 h, evaluated after 20 days, 100=total damage to plant, 0=no damage. The gist of the method:
as §2

The test system of test [16] is Avena fatua (AVEFA). Kind of test: Example B pre-emergence herbicidal greenhouse test. The following applies: 480 h, evaluated after 20 days, 100=total damage to plant, 0=no damage. The procedure, abridged:
as §2

Test [17] concerns Echinochloa crus-galli (ECHCG). Kind of test: Example B pre-emergence herbicidal greenhouse test. The following applies: 480 h, evaluated after 20 days, 100=total damage to plant, 0=no damage. The procedure, abridged:
as §2

Test [18] concerns Alopecurus myosuroides (ALOMY). Kind of test: Example B pre-emergence herbicidal greenhouse test. The following applies: 480 h, evaluated after 20 days, 100=total damage to plant, 0=no damage. The procedure, abridged:
as §2

Test [19] concerns Lolium perenne (LOLPE). Kind of test: Example B post-emergence herbicidal greenhouse test. The following applies: 360 h, evaluated after 15 days, 100=total damage to plant, 0=no damage. The gist of the method: as §2
The test system of test [20] is Digitaria sanguinalis (DIGSA). Described as above. The following applies: 360 h, evaluated after 15 days, 100=total damage to plant, 0=no damage. The procedure, abridged:
as §2

Test [21] relates to Setaria faberi (SETFA). The description is as above. Conditions: 360 h, evaluated after 15 days, 100=total damage to plant, 0=no damage. The gist of the method: as §2
Test [22] deals with Avena fatua (AVEFA). The description is as above. Conditions: 360 h, evaluated after 15 days, 100=total damage to plant, 0=no damage. The procedure, abridged: as §2
Test [23] concerns Echinochloa crus-galli (ECHCG). The test is described as above. Conditions: 360 h, evaluated after 15 days, 100=total damage to plant, 0=no damage. The procedure, abridged: as §2
Test [24] deals with Alopecurus myosuroides (ALOMY). The test is described as above. The following applies: 360 h, evaluated after 15 days, 100=total damage to plant, 0=no damage. The procedure, abridged: as §2

For `Cc1ccc(-c2ccc(Cl)cc2)cc1C1=C(O)[C@H]2CC[C@H](C2)C1=O` [Compound T1, 3-(4′-chloro-4-methylbiphen-3-yl)bicyclo[3.2.1]octane-2,4-dione], the “SOLNI damage to plant” value in [1] worked out at 20; in [7], 0. Moreover, the pest or weed control at 250 g/ha was determined as 50% in test [2]; 100% in test [3]; 90% in [4]; 100% in test [5]; 80% in [6]; 0% in [8]. Moreover, the pest or weed control at 250 g/ha was found to be 90% in test [9]; 40% in test [10]; 90% in test [11]; 50% in test [12]; 100% in [13]; 50% in test [14]. The pest or weed control at 250 g/ha stood at 100% in [15], 30% in test [16], 100% in [17] and 80% in [18]. The pest or weed control at 125 g/ha in test [19] came to 50%; in test [20], 90%; in test [21], 90%; in test [22], 30%; in test [23] it was 90%; in test [24], 50%.
With `CCc1ccc(-c2ccc(Cl)cc2)cc1C1=C(O)[C@H]2CC[C@H](C2)C1=O` [Compound T4, 3-(4′-chloro-4-ethylbiphen-3-yl)bicyclo[3.2.1]octane-2,4-dione], the “SOLNI damage to plant” value in test [1] and in test [7] was 0 throughout. Also, the pest or weed control at 250 g/ha in [2] came out at 0%; in [3], 100%; in test [4] it was 100%; in [5] it was 100%; in test [6], 90%; in test [8], 0%. The pest or weed control at 250 g/ha in test [9] was 90%; in [10] it was 50%; in test [11] it was 100%; in test [12], 50%; in test [13], 100%; in [14], 100%. Besides, the pest or weed control at 250 g/ha in test [15] was determined as 100%; in test [16], 80%; in [17], 100%; in test [18], 100%. For the same compound, the pest or weed control at 125 g/ha in test [19] came out at 100%; in [20], 100%; in test [21], 100%; in test [22], 100%; in test [23], 100%; in test [24], 80%.
